Results reported in patent US20190119282A1, “IMIDAZOPYRIDAZINES USEFUL AS INHIBITORS OF THE PAR-2 SIGNALING PATHWAY” (Vertex Pharmaceuticals Incorporated, priority 2013, published 2019).

How the values were obtained:
[1] = molecular target: T1, PAR2 (HT-29 cells, trypsin activation) (Homo sapiens, UniProt P55085); test: Ca FLIPR TETRA assay, ANTAGONIST mode, stimulation with 3.1 U/mL trypsin; format: cell-based; conditions: for IC50: HT-29 cells; for Trypsin % @ 50 μM: reported prior-art compounds
T1 construct: host or cells: HT-29 cells
T1 sequence (P55085 26-397): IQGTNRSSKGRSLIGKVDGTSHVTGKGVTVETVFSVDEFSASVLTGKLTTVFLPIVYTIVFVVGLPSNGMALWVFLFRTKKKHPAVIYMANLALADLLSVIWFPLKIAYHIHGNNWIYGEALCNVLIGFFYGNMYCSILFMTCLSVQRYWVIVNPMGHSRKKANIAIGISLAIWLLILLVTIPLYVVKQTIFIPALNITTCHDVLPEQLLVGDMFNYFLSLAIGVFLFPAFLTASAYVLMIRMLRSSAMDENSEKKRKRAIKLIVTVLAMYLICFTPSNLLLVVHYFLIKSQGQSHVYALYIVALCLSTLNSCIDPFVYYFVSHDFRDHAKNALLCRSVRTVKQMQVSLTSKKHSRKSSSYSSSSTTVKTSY
Experimental: (§1) Example 60: Protocol for Testing PAR2 Compounds in ANTAGONIST Mode Using the Ca FLIPR^TETRA Assay (384 Well)
(§2) 23000 HT-29 cells (ATCC# HTB-38) were plated in 384-well black, transparent-flat bottom plates and incubated in 25 uL of 1% FBS/McCoy's media ON at 37° C. under an atmosphere of 5% CO2. The following day, 25 uL FLIPR calcium 5 Molecular Devices assay reagent (Cat: R-8186) was added. Plates were incubated at 37° C. and r. t. for 45 min and 15 min, respectively. Compounds dilutions were prepared in 100% DMSO using a Biomek FX and diluted 20-fold in HBSS and then 5.5 uL was added directly to the cells by the FLIPR^TETRA (10× dilution) using FLIPR Tetra Pipette tips, black, non-sterile, 384 Molecular Devices (Cat: 9000-0764).
(§3) A first read was performed to determine whether the test compounds on their own can activate Ca2+ responses.
(§4) The cells were incubated with the compounds for 30 min at r. t. and then read in ANTAGONIST mode in the same plate by stimulating with 6.2 uL of a fixed concentration of the activator: final concentrations: 8 μM SLIGKV, 1 U/mL Thrombin, 3.1 U/mL trypsin, or 0.6 μM UTP.

[2] = molecular target: T2, PAR2 (HT-29 cells, SLIGKV activation) (Homo sapiens, UniProt P55085); test: Ca FLIPR TETRA assay, ANTAGONIST mode, stimulation with 8 μM SLIGKV; format: cell-based; conditions: for IC50: HT-29 cells
T2 construct: host or cells: HT-29 cells
T2 sequence (P55085 26-397): T1 sequence (P55085 26-397)
Experimental: as §1, §2, §3, §4

[3] = Table 8, reported compounds of WO2005/030773, JP2003286171, JP2004170323

IC50 [1, 3]	IC50 [2, 3]	Compound	other results
		CC(C)c1cc(-c2ccc(F)cc2)nn2cc(C(=O)N3CCNC(=O)C3)nc12 [Compound I-591]	IC50 ([1]; Table 6, 3.1 U/mL trypsin): 41 µM; IC50 ([2]; Table 6, 8 μM SLIGKV): 17 µM
0.13 µM	0.057 µM	CCOC(=O)C1CCCCN1C(=O)c1cc2nc(-c3ccc(Cl)cc3)cc(C(F)(F)F)n2n1 (stereo not drawn) [Compound P-592, reference compound]	
> 50 µM		O=C(c1cc2nc(-c3ccc(Cl)cc3)cc(C(F)(F)F)n2n1)N1CCCCC1 [Compound P-593, reference compound]	SLIGKV % @ 50 μM ([2]; Table 8, @ 50 μM, reported prior-art compounds): 67% @ 50 μM
28 µM	4.67 µM	O=C(c1cc2nc(-c3ccccc3)cc(C(F)(F)F)n2n1)N1CCCCC1 [Compound P-594, reference compound]	
19.2 µM	1.73 µM	CC1CCCCN1C(=O)c1cc2nc(-c3ccccc3)cc(C(F)(F)F)n2n1 (stereo not drawn) [Compound P-595, reference compound]	
> 50 µM	10.8 µM	O=C(c1ccccc1)N1CCN(C(=O)c2cc3nc(-c4ccccc4)cc(C(F)(F)F)n3n2)CC1 [Compound P-596, reference compound]	
27 µM	17.4 µM	CN(CCO)C(=O)c1cc2nc(-c3ccc(Cl)cc3)cc(C(F)(F)F)n2n1 [Compound P-597, reference compound]	
> 50 µM	> 50 µM	CC1CCCCN1C(=O)c1cc2nc(-c3ccc(Cl)cc3)cc(C(F)(F)F)n2n1 (stereo not drawn) [Compound P-598, reference compound]	
> 50 µM	9.81 µM	O=C(c1cc2nc(-c3ccc(Cl)cc3)cc(C(F)(F)F)n2n1)N1CCCCCC1 [Compound P-599, reference compound]	
> 50 µM	37 µM	O=C(O)C1CCCN(C(=O)c2cc3nc(-c4ccc(Cl)cc4)cc(C(F)(F)F)n3n2)C1 (stereo not drawn) [Compound P-600, reference compound]	
0.88 µM	0.061 µM	O=C(c1cc2nc(-c3ccccc3)cc(C(F)(F)F)n2n1)N1CCCCCC1 [Compound P-601, reference compound]	
> 50 µM	31 µM	CN(CCO)C(=O)c1cc2nc(-c3ccccc3)cc(C(F)(F)F)n2n1 [Compound P-602, reference compound]	
17 µM	0.14 µM	CCOC(=O)C1CCN(C(=O)c2cc3nc(-c4ccccc4)cc(C(F)(F)F)n3n2)CC1 [Compound P-603, reference compound]	
3.85 µM	0.64 µM	CCOC(=O)C1CCCCN1C(=O)c1cc2nc(-c3ccccc3)cc(C(F)(F)F)n2n1 (stereo not drawn) [Compound P-604, reference compound]	
	0.073 µM	CCOC(=O)C1CCN(C(=O)c2cc3nc(-c4ccc(Cl)cc4)cc(C(F)(F)F)n3n2)CC1 [Compound P-605, reference compound]	Trypsin % @ 50 μM ([1]; Table 8): 50% @ 50 μM
> 50 µM	0.37 µM	O=C(c1ccccc1)N1CCN(C(=O)c2cc3nc(-c4ccc(Cl)cc4)cc(C(F)(F)F)n3n2)CC1 [Compound P-606, reference compound]	
> 50 µM	> 50 µM	O=C(c1cc2nc(-c3ccccc3)cc(C(F)(F)F)n2n1)N1CCC(c2ccc(F)cc2)C1 (stereo not drawn) [Compound P-607, reference compound]	
33 µM	23 µM	O=C(c1nn2c(C(F)(F)F)cc(-c3ccccc3)nc2c1Br)N1CCC(c2ccc(F)cc2)C1 (stereo not drawn) [Compound P-608, reference compound]	
14 µM	2.8 µM	O=C(c1cc2nc(-c3ccccc3)cc(C(F)(F)F)n2n1)N1CCC(O)CC1 [Compound P-609, reference compound]	
	0.48 µM	O=C(O)C1CCCCN(C(=O)c2cc3nc(-c4ccc(F)cc4)cc(C(F)(F)F)n3n2)C1 (stereo not drawn) [Compound P-610, reference compound]	Trypsin % @ 50 μM ([1]; Table 8): 63% @ 50 μM
1.25 µM	0.11 µM	O=C(O)C1CCCCN(C(=O)c2cc3nc(-c4ccc(Cl)cc4)cc(C(F)(F)F)n3n2)C1 (stereo not drawn) [Compound P-611, reference compound]	
